According to PMC10896388, “Hybrid Allosteric Modulators of M1 Muscarinic Receptors Enhance Acetylcholine Efficacy and Decrease Locomotor Activity and Turning Behaviors in Zebrafish” (Research Square, 2024):
Entries after “also recorded” stand apart in the source; their conditions may differ. Like-named read-outs stand apart in the source and are kept apart here.

What was measured:
[1] = test system: wild-type (AB) zebrafish (Danio rerio); assay: Maximum tolerated concentration (MTC) determination in zebrafish larvae; type: in vivo; conditions: for MTC (maximum tolerated concentration): 5 dpf zebrafish larvae, after 24-hr exposure
Method: Determination of maximum tolerated concentration (adapted from Berghmans)[52] was completed by placing 5 days post fertilization (dpf) wild-type zebrafish larvae in a 24 well plate at 6 fish per well, and one compound concentration per well. […] Death was determined by the absence of heartbeat. Additional endpoints were used to assess toxicity at non-lethal concentrations such as startle capacity (poke stimulus), abnormalities in swimming behavior (loss of dorsoventral balance), and gross morphological deformities (bent body). […] The MTC determination was used to select three doses of each compound (low, medium, high dose) to be used in behavioral assays.

[2] = test system: wild-type (AB) zebrafish (Danio rerio); assay: animal or person; type: in vivo; conditions: for Therap. Index: zebrafish, apparently MTC / MEC
Method: The movement of larval zebrafish was monitored with the Noldus behavior recording system (Noldus Information Technology, Leesburg VA) and quantified using EthoVision® XT 15 software (Noldus Information Technology, Leesburg VA). Five-dpf zebrafish larvae were exposed to a range of nonlethal concentrations of compounds in a 24-well plate with appropriate controls. The plate was immediately placed in the incubator for a 30-minute exposure period. After 30 minutes, the plate was transferred to the Noldus system and swimming behavior was recorded in 100% light for 30 minutes to measure spontaneous swimming behavior. The light was switched off for 10 minutes (dark period) and then switched on for 10 minutes (light period), which was then repeated for two additional cycles. In total, the larvae were exposed to three cycles of alternating 10-minute dark and light periods (100% darkness-to-100% light). Each drug challenge was conducted on three separate plates with n = 6 larvae/dose/plate.
Absolute turn angle (TA) and angular velocity provided measures of the extent of turning behavior, while the intra-individual variance of turn angle quantified how consistently (low variance) or inconsistently (high variance) fish turned. A lowered intra-individual variance of turning reflected repeatedly performing the same turning behavior, a stereotypy.[53]
All data for exposure and the behavioral end points were analyzed by one-way ANOVA (factor: drug concentration) followed by a Dunnett’s multiple comparisons test for post hoc significance between drug concentration and control group. Statistically significant differences are noted as follows; *, p < 0.05; **, p < 0.01; ***, p < 0.001.

[3] = molecular target: T1, human M1 muscarinic receptors (Homo sapiens, UniProt P11229); assay: [3H]-arachidonic acid release in CHO cells expressing M1 receptors, with and without ACh; type: cell-based; set-up: expressed in transfected cells; host or cells: CHO cells (stably transfected CHO-hM1, from Mark Brann's laboratory, NIH); conditions: for No ACh: agonist effect of the allosteric ligand by itself, fraction of the maximal response that could be elicited by ACh / 0.1 µM ACh: response with modulator present divided by response to ACh alone / 100 µM ACh: response with modulator present divided by response to ACh alone: modulator 10 µM, mean ± s.e.m.; for No ACh: agonist effect of the allosteric ligand by itself, fraction of the maximal response that could be elicited by ACh: at least 4 determinations
T1 sequence (P11229 1-460): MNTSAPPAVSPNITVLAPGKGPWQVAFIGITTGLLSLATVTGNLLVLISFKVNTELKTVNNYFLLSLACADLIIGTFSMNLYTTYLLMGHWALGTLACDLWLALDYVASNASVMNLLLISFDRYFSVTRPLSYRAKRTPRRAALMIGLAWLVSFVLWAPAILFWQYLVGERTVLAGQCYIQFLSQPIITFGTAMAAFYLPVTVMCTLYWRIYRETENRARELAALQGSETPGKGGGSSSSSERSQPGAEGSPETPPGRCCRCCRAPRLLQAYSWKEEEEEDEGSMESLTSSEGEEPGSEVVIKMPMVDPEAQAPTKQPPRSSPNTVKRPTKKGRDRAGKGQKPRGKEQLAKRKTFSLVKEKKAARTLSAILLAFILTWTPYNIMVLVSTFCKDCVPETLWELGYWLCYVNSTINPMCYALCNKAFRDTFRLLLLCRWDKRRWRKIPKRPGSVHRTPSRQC
Method: CHO cells expressing human M1 muscarinic receptors were cultured at 37°C in a 5% CO2 atmosphere in F12 medium supplemented with 5% fetal bovine serum, 100 units/mL penicillin, and 100µg/mL streptomycin. These cells were obtained from Mark Brann’s laboratory when they were at NIH and have been in use by us and others for many years.[49]
Measurement of [^3H]AA release was performed as described in Stahl and Ellis.[24] Stably transfected CHO-hM1 cells were seeded on 24-well plates (Greiner Bio-One GmbH, Frickenhausen, Germany) at a density of 5.0 × 10^4 cells/well in 0.5 ml of F-12 medium. Cells were incubated until they attached (approximately 3 h), followed by the addition of [^3H]AA to a final concentration of 0.05 µCi of [^3H]AA per well. The cells were then grown for 16 to 20 h before the assay was performed. [^3H]AA release was measured in Eagle’s basal medium with 20 mM HEPES and 2 mg/ml fatty acid-free bovine serum albumin (EM-BSA). Cells were rinsed twice with EM-BSA, followed by the addition of EM-BSA media containing experimental agents and incubated for 1 h at 37°C. The assay was terminated by aspiration of the media, and the amount of [^3H]AA released was determined by liquid scintillation counting (Beckman-Coulter LS6500). […]
Tabulated [^3H]AA release data are represented as a fraction of maximal release elicited by ACh or as the fraction of release elicited by the relevant concentration of ACh alone, as indicated. Dose-response curves were normalized to the maximal response of ACh without allosteric ligand. Where indicated, response curves were analyzed using the empirical four-parameter equation: […] where X is the concentration of the ligand used, Y is the amount of response, C50 is the concentration of the ligand that produces 50% of the maximal effect, Top and Bottom are the top and bottom plateaus of the curve, and n is related to the Hill slope for the curve. Where indicated, families of response curves were analyzed according to an allosteric operational model:[50],[51]

[4] = [3H]AA release, CHO-hM1, modulators at 10 µM (amiodarone 30 µM)

| SMILES | MTC (maximum tolerated concentration) [1] | Therap. Index [2] | modulation of ACh response (in words) [3, 4] | further results |
| --- | --- | --- | --- | --- |
| CCCCc1oc2ccccc2c1C(=O)c1cc(I)c(OCCN(CC)CC)c(I)c1 [Amiodarone, reference compound] | 10 µM | – | – | concentration that produced death ([1]; zebrafish larvae): 100 µM |
| COc1ccc(Cn2cc(C(=O)O)c(=O)c3ccccc32)cc1 [BQCA, reference compound] | – | – | – | effect on locomotor activity and turning behaviors (in words) ([2]; AB zebrafish, 30-minute spontaneous swimming period): decreased overall locomotor activity; modulation of ACh response (in words) [3]: enhanced potency without appreciable effect on maximal response; No ACh: agonist effect of the allosteric ligand by itself, fraction of the maximal response that could be elicited by ACh ([3]; CHO-hM1): 0.02 ± 0.00 |
| CCCCc1oc2ccccc2c1C(=O)c1cc(I)c(OCCNCC)c(I)c1.Cl [Compound 1, (2-butylbenzofuran-3-yl)(4-(2-(ethylamino)ethoxy)-3,5-diiodophenyl)methanone hydrochloride] | 3 µM | 1 | suppressed the maximal ACh response | – |
| CCCCc1oc2ccccc2c1C(=O)c1cc(I)c(OCC[N+](CC)(CC)CC)c(I)c1 [Compound 2, N-ethyl amiodarone, reference compound] | 1 µM | – | NAM of mAChR potency and efficacy | – |
| CCCCc1oc2ccccc2c1C(=O)c1cc(I)c(O)c(I)c1 [Compound 3, reference compound] | 3 µM | – | suppressed the maximal ACh response | – |
| CCCCc1oc2ccccc2c1C(=O)c1ccc(O)cc1 [Compound 4, reference compound] | 0.3 µM | – | suppressed the maximal ACh response | – |
| CCCCc1oc2ccccc2c1C(=O)c1cc(I)c(OCCN(CC)C(C)=O)c(I)c1 [Compound 5a, N-(2-(4-(2-butylbenzofuran-3-carbonyl)-2,6-diiodophenoxy)ethyl)-N-ethylacetamide] | 10 µM | – | – | intrinsic agonist activity (in words) ([3]; [3H]AA release in the absence of ACh, 10 µM): significant intrinsic agonist activity; increase in mAChR activity compared to treatment with ACh alone ([3]; [3H]AA release, CHO-hM1, predominantly at higher doses of ACh (Table 2, not available)): 70% |
| CCCCc1oc2ccccc2c1C(=O)c1ccc(OC)cc1 [Compound 6a, (2-butylbenzofuran-3-yl)(4-methoxyphenyl)methanone] | 3 µM | – | – | – |
| CCCCc1oc2ccccc2c1C(=O)c1cc(I)c(OC)c(I)c1 [Compound 6b, (2-butylbenzofuran-3-yl)(3,5-diiodo-4-methoxyphenyl)methanone] | 30 µM | – | increased ACh activity | – |
| CCCCc1oc2ccccc2c1C(=O)c1ccc(OCCN(CC)CC)cc1 [Compound 6c, (2-butylbenzofuran-3-yl)(4-(2-(diethylamino)ethoxy)phenyl)methanone] | 3 µM | 30 | decreased ACh activity | – |
| COc1ccc(CN2C(=O)C(=O)c3ccccc32)cc1I [Compound 8b, 1-(3-iodo-4-methoxybenzyl)indoline-2,3-dione] | 10 µM | 10 | – | – |
| COc1ccc(CN2C(=O)C(=O)c3ccccc32)cc1Br [Compound 8d, 1-(3-bromo-4-methoxybenzyl)indoline-2,3-dione] | 100 µM | 100 | – | – |
| COc1c(Cl)cc(CN2C(=O)C(=O)c3ccccc32)cc1Cl [Compound 8e, 1-(3,5-dichloro-4-methoxybenzyl)indoline-2,3-dione] | 100 µM | 100 | – | – |
| COc1ccc(CN2C(=O)C(=O)c3ccccc32)cc1Cl [Compound 8f, 1-(3-chloro-4-methoxybenzyl)indoline-2,3-dione] | 10 µM | 3.3 | – | – |
| COc1c(F)cc(CN2C(=O)C(=O)c3ccccc32)cc1F [Compound 8g, 1-(3,5-difluoro-4-methoxybenzyl)indoline-2,3-dione] | 30 µM | 30 | – | – |
| COc1ccc(CN2C(=O)C(=O)c3ccccc32)cc1F [Compound 8h, 1-(3-fluoro-4-methoxybenzyl)indoline-2,3-dione] | 30 µM | 10 | – | – |
| O=C1C(=O)N(Cc2cc(F)c(F)c(F)c2)c2ccccc21 [Compound 8i, 1-(3,4,5-trifluorobenzyl)indoline-2,3-dione] | 10 µM | 10 | – | – |
| COc1cc(CN2C(=O)C(=O)c3ccccc32)cc(OC)c1OC [Compound 8k, 1-(3,4,5-trimethoxybenzyl)indoline-2,3-dione] | 30 µM | 30 | – | – |
| CCN(CC)CCOc1c(Br)cc(CN2C(=O)C(=O)c3ccccc32)cc1Br.Cl [Compound 8l, 1-(3,5-dibromo-4-(2-(diethylamino)ethoxy)benzyl)indoline-2,3-dione hydrochloride] | 10 µM | 1 | only decreased ACh activity; also recorded: decreased ACh potency with little impact on ACh efficacy | – |
| O=C1C(=O)N(Cc2ccc(O)cc2)c2ccccc21 [Compound 10, 1-(4-hydroxybenzyl)indoline-2,3-dione] | 10 µM | 3.3 | – | – |
| CCCCc1oc2ccc(NS(C)(=O)=O)cc2c1C(=O)c1ccc(OCCCN(CCCC)CCCC)cc1 [Dronedarone, reference compound] | 10 µM | 1 | – | 0.1 µM ACh: response with modulator present divided by response to ACh alone ([3]; CHO-hM1): 0.25 ± 0.05; 100 µM ACh: response with modulator present divided by response to ACh alone ([3]; CHO-hM1): 0.75 ± 0.07; No ACh: agonist effect of the allosteric ligand by itself, fraction of the maximal response that could be elicited by ACh ([3]; CHO-hM1): 0.08 ± 0.01 |
| O=C1C(=O)N(Cc2ccc(Br)cc2)c2ccccc21 [VU0119498, reference compound] | – | – | – | 0.1 µM ACh: response with modulator present divided by response to ACh alone ([3]; CHO-hM1): 1.28 ± 0.12; 100 µM ACh: response with modulator present divided by response to ACh alone ([3]; CHO-hM1): 1.03 ± 0.05; No ACh: agonist effect of the allosteric ligand by itself, fraction of the maximal response that could be elicited by ACh ([3]; CHO-hM1): 0.06 ± 0.01 |
